The record followed here is US8692017B2, “Carbon linked modulators of gamma-secretase” (Janssen Pharmaceutica, N.V., priority 2007, dated 2014).

Each structure is given as a SMILES string.

The experiment deals with T1, γ-secretase (Homo sapiens, UniProt P49768).
T1 construct: endogenous in cells; host or cells: SKNBE2 cells carrying APP 695 wild type
As to the kind of experiment: Screening for γ-secretase-modulating activity (Aβ42 lowering) in SKNBE2 cells carrying the APP 695-wild type. In kind it is cell-based. To be noted: SKNBE2 cells carrying APP 695-wild type; for EC50: read-out: Aβ 42 lowering EC50; for inhibition at 1 µM: read-out: Aβ % inhibition @ 1 uM. The procedure:
Screening was carried out using SKNBE2 cells carrying the APP 695-wild type, grown in DMEM/NUT-mix F12 (HAM) provided by Gibco (cat no. 31330-38) containing 5% Serum/Fe supplemented with 1% non-essential amino acids.
Cells were grown to near confluency.
The screening was performed using the assay as described in Citron et al (1997) Nature Medicine 3: 67.

One may read the EC50 as the concentration giving half of the maximal effect. Broadly, the inhibition is the change of the read-out against control, counted positive when it falls.

For `CC(C)CC(C(=O)O)c1cc(C(=O)c2cc(Cl)cc(Cl)c2)cc(-c2ccc(C(F)(F)F)cc2)c1` (centres unmarked) [Compound 1, 2-[5-(3,5-Dichloro-benzoyl)-4′-trifluoromethyl-biphenyl-3-yl]-4-methyl-pentanoic acid], the EC50 is 710 nM.

As for `CC(C)CC(C(=O)O)c1cc(Cc2cc(Cl)cc(Cl)c2)cc(-c2ccc(C(F)(F)F)cc2)c1` (centres unmarked) [Compound 2, 2-[5-(3,5-Dichloro-benzyl)-4′-trifluoromethyl-biphenyl-3-yl]-4-methyl-pentanoic acid], the EC50 worked out at 570 nM.

As to `CC(C)CC(C(=O)O)c1cc(Cc2ccc(F)cc2F)cc(-c2ccc(C(F)(F)F)cc2)c1` (centres unmarked) [Compound 3, 2-[5-(2,4-Difluoro-benzyl)-4′-trifluoromethyl-biphenyl-3-yl]-4-methyl-pentanoic acid], the EC50 worked out at 2170 nM.

`CC(C)CC(C(=O)O)c1cc(Cc2cnccc2Cl)cc(-c2ccc(C(F)(F)F)cc2)c1` (centres unmarked) [Compound 4, 2-[5-(4-Chloro-pyridin-3-ylmethyl)-4′-trifluoromethyl-biphenyl-3-yl]-4-methyl-pentanoic acid]: the EC50 was determined as 2750 nM.

`CC(C)CC(C(=O)O)c1cc(Cc2cccc(C(F)(F)F)c2)cc(-c2ccc(C(F)(F)F)cc2)c1` (centres unmarked) [Compound 5, 4-Methyl-2-[4′-trifluoromethyl-5-(3-trifluoromethyl-benzyl)-biphenyl-3-yl]-pentanoic acid]: the EC50 stood at 1130 nM.

In the case of `CC(C)CC(C(=O)O)c1cc(Cc2cc(F)cc(F)c2)cc(-c2ccc(C(F)(F)F)cc2)c1` (centres unmarked) [Compound 6, 2-[5-(3,5-Difluoro-benzyl)-4′-trifluoromethyl-biphenyl-3-yl]-4-methyl-pentanoic acid], the EC50 amounted to 740 nM.

For the compound `CC(C)CC(C(=O)O)c1cc(C(=O)c2cc(F)cc(F)c2)cc(-c2ccc(C(F)(F)F)cc2)c1` (centres unmarked) [Compound 7, 2-[5-(3,5-Difluoro-benzoyl)-4′-trifluoromethyl-biphenyl-3-yl]-4-methyl-pentanoic acid], the inhibition at 1 µM stood at 50%.

Regarding `CC(C)CC(C(=O)O)c1cc(C(=O)c2ccc(C#N)cc2)cc(-c2ccc(C(F)(F)F)cc2)c1` (centres unmarked) [Compound 8, 2-[5-(4-Cyano-benzoyl)-4′-trifluoromethyl-biphenyl-3-yl]-4-methyl-pentanoic acid], the inhibition at 1 µM worked out at 25%.

With `CC(C)CC(C(=O)O)c1cc(-c2ccc(C(F)(F)F)cc2)cc(C(O)c2cc(F)cc(F)c2)c1` (centres unmarked) [Compound 9, 2-{5-[(3,5-Difluoro-phenyl)-hydroxy-methyl]-4′-trifluoromethyl-biphenyl-3-yl}-4-methyl-pentanoic acid], the inhibition at 1 µM turned out to be 14%.

As to `CC(C)CC(C(=O)O)c1cc(C#Cc2cc(F)cc(F)c2)cc(-c2ccc(C(F)(F)F)cc2)c1` (centres unmarked) [Compound 10, 2-[5-(3,5-Difluoro-phenylethynyl)-4′-trifluoromethyl-biphenyl-3-yl]-4-methyl-pentanoic acid], the inhibition at 1 µM was determined as 53%.

In the case of `CC(C)CC(C(=O)O)c1cc(C#Cc2ccc(C(F)(F)F)cc2)cc(-c2ccc(C(F)(F)F)cc2)c1` (centres unmarked) [Compound 11, 4-Methyl-2-[4′-trifluoromethyl-5-(4-trifluoromethyl-phenylethynyl)-biphenyl-3-yl]-pentanoic acid], the inhibition at 1 µM came to 10%.

As for `CC(C)CC(C(=O)O)c1cc(C#Cc2ccc(Cl)cc2)cc(-c2ccc(C(F)(F)F)cc2)c1` (centres unmarked) [Compound 12, 2-[5-(4-Chloro-phenylethynyl)-4′-trifluoromethyl-biphenyl-3-yl]-4-methyl-pentanoic acid], the inhibition at 1 µM came out at 18%.

Take `CC(C)CC(C(=O)O)c1cc(C#Cc2cc(C(F)(F)F)cc(C(F)(F)F)c2)cc(-c2ccc(C(F)(F)F)cc2)c1` (centres unmarked) [Compound 13, 2-[5-(3,5-Bis-trifluoromethyl-phenylethynyl)-4′-trifluoromethyl-biphenyl-3-yl]-4-methyl-pentanoic acid]: the inhibition at 1 µM came out at 28%.

As for `CC(C)CC(C(=O)O)c1cc(/C=C/c2ccc(-c3ccccc3)cc2)cc(-c2ccc(C(F)(F)F)cc2)c1` (centres unmarked) [Compound 14, 2-[5-(2-Biphenyl-4-yl-vinyl)-4′-trifluoromethyl-biphenyl-3-yl]-4-methyl-pentanoic acid], the EC50 was found to be 150 nM.

For the compound `CC(C)CC(C(=O)O)c1cc(/C=C/c2ccc(C(F)(F)F)cc2)cc(-c2ccc(C(F)(F)F)cc2)c1` (centres unmarked) [Compound 15, 4-Methyl-2-{4′-trifluoromethyl-5-[2-(4-trifluoromethyl-phenyl)-vinyl]-biphenyl-3-yl}-pentanoic acid], the EC50 turned out to be 400 nM.

For the compound `Cc1ccc(/C=C/c2cc(-c3ccc(C(F)(F)F)cc3)cc(C(CC(C)C)C(=O)O)c2)cc1` (centres unmarked) [Compound 16, 4-Methyl-2-[5-(2-p-tolyl-vinyl)-4′-trifluoromethyl-biphenyl-3-yl]-pentanoic acid], the EC50 was determined as 660 nM.

With `CC(C)CC(C(=O)O)c1cc(/C=C/c2ccc(Cl)cc2)cc(-c2ccc(C(F)(F)F)cc2)c1` (centres unmarked) [Compound 17, 2-{5-[2-(4-Chloro-phenyl)-vinyl]-4′-trifluoromethyl-biphenyl-3-yl}-4-methyl-pentanoic acid], the EC50 is 360 nM.

With `CC(C)CC(C(=O)O)c1cc(/C=C/c2ccc(F)cc2)cc(-c2ccc(C(F)(F)F)cc2)c1` (centres unmarked) [Compound 18, 2-{5-[2-(4-Fluoro-phenyl)-vinyl]-4′-trifluoromethyl-biphenyl-3-yl}-4-methyl-pentanoic acid], the EC50 was 390 nM.

As to `CC(C)CC(C(=O)O)c1cc(/C=C/c2cc(F)cc(F)c2)cc(-c2ccc(C(F)(F)F)cc2)c1` (centres unmarked) [Compound 19, 2-{5-[2-(3,5-Difluoro-phenyl)-vinyl]-4′-trifluoromethyl-biphenyl-3-yl}-4-methyl-pentanoic acid], the concentration giving a half-maximal response (EC50) came out at 450 nM.

Regarding `COc1ccc(/C=C/c2cc(-c3ccc(C(F)(F)F)cc3)cc(C(CC(C)C)C(=O)O)c2)cc1` (centres unmarked) [Compound 20, 2-{5-[2-(4-Methoxy-phenyl)-vinyl]-4′-trifluoromethyl-biphenyl-3-yl}-4-methyl-pentanoic acid], the EC50 is 610 nM.

With `CC(C)CC(C(=O)O)c1cc(/C=C\c2ccc(Cl)cc2)cc(-c2ccc(C(F)(F)F)cc2)c1` (centres unmarked) [Compound 21, 2-{5-[2-(4-Chloro-phenyl)-vinyl]-4′-trifluoromethyl-biphenyl-3-yl}-4-methyl-pentanoic acid], the inhibition at 1 µM stood at 34%.

With `CC(C)CC(C(=O)O)c1cc(/C=C\c2ccc(C(F)(F)F)cc2)cc(-c2ccc(C(F)(F)F)cc2)c1` (centres unmarked) [Compound 22, 4-Methyl-2-{4′-trifluoromethyl-5-[2-(4-trifluoromethyl-phenyl)-vinyl]-biphenyl-3-yl}-pentanoic acid], the inhibition at 1 µM amounted to 46%.

Turning to `CC(C)CC(C(=O)O)c1cc(/C=C/c2cc(C(F)(F)F)cc(C(F)(F)F)c2)cc(-c2ccc(C(F)(F)F)cc2)c1` (centres unmarked) [Compound 23, 2-{5-[2-(3,5-Bis-trifluoromethyl-phenyl)-vinyl]-4′-trifluoromethyl-biphenyl-3-yl}-4-methyl-pentanoic acid], the inhibition at 1 µM amounted to 72%.

In the case of `CC(C)CC(C(=O)O)c1cc(CCc2ccc(-c3ccccc3)cc2)cc(-c2ccc(C(F)(F)F)cc2)c1` (centres unmarked) [Compound 24, 2-[5-(2-Biphenyl-4-yl-ethyl)-4′-trifluoromethyl-biphenyl-3-yl]-4-methyl-pentanoic acid], the EC50 turned out to be 210 nM.

Take `CC(C)CC(C(=O)O)c1cc(CCc2ccc(C(F)(F)F)cc2)cc(-c2ccc(C(F)(F)F)cc2)c1` (centres unmarked) [Compound 25, 4-Methyl-2-{4′-trifluoromethyl-5-[2-(4-trifluoromethyl-phenyl)-ethyl]-biphenyl-3-yl}-pentanoic acid]: the EC50 is 670 nM.

Consider `CC(C)CC(C(=O)O)c1cc(CCc2ccc(Cl)cc2)cc(-c2ccc(C(F)(F)F)cc2)c1` (centres unmarked) [Compound 26, 2-{5-[2-(4-Chloro-phenyl)-ethyl]-4′-trifluoromethyl-biphenyl-3-yl}-4-methyl-pentanoic acid], for which the EC50 amounted to 740 nM.

On to `CC(C)CC(C(=O)O)c1cc(CCc2ccc(F)cc2)cc(-c2ccc(C(F)(F)F)cc2)c1` (centres unmarked) [Compound 27, 2-{5-[2-(4-Fluoro-phenyl)-ethyl]-4′-trifluoromethyl-biphenyl-3-yl}-4-methyl-pentanoic acid], for which the EC50 amounted to 580 nM.

Consider `Cc1ccc(CCc2cc(-c3ccc(C(F)(F)F)cc3)cc(C(CC(C)C)C(=O)O)c2)cc1` (centres unmarked) [Compound 28, 4-Methyl-2-[5-(2-p-tolyl-ethyl)-4′-trifluoromethyl-biphenyl-3-yl]-pentanoic acid], for which the EC50 worked out at 350 nM.

Regarding `CC(C)CC(C(=O)O)c1cc(CCc2cc(F)cc(F)c2)cc(-c2ccc(C(F)(F)F)cc2)c1` (centres unmarked) [Compound 29, 2-{5-[2-(3,5-Difluoro-phenyl)-ethyl]-4′-trifluoromethyl-biphenyl-3-yl}-4-methyl-pentanoic acid], the EC50 amounted to 410 nM.
